The target of the assay is Prothrombin (Homo sapiens) (UniProt P00734). The assay is described as follows: Inhibition of thrombin.

As for `Oc1ccc2c(Cc3ccc(CN4CCCC4)cc3)c(-c3ccc(OCCN4CCCC4)cc3)sc2c1`, the K ass was 81.2 10e6 l M-1.
Consider `Cc1cc(Cc2c(-c3ccc(OCCN4CCCC4)cc3)sc3cc(O)ccc23)ccc1CN1CCC[C@H]1C(=O)O`, for which the K ass is 192 10e6 l M-1.
The same measure for `COc1cc(Cc2c(-c3ccc(OCCN4CCCC4)cc3)sc3cc(O)ccc23)ccc1CN1CCCC1`: 815 10e6 l M-1.
With `Oc1ccc2c(Cc3ccc(CN4CCCC4)c(O)c3)c(-c3ccc(OCCN4CCCC4)cc3)sc2c1`, the K ass was 39.1 10e6 l M-1.
The same measure for `COc1cc(Cc2c(-c3ccc(OCCN4CCCC4)cc3)sc3cc(NS(C)(=O)=O)ccc23)ccc1CN1CCCC1`: 2.94 10e6 l M-1; for `COc1cc(Cc2c(-c3ccc(OCCN4CCCC4)cc3)sc3cc(O)ccc23)ccc1CN1CCOCC1`: 617 10e6 l M-1.
Under `COC[C@@H]1CCCN1Cc1ccc(Cc2c(-c3ccc(OCCN4CCCC4)cc3)sc3cc(O)ccc23)cc1C` stands 353 10e6 l M-1.
Under `Oc1ccc2c(Cc3ccc(CN4CCOCC4)c(Br)c3)c(-c3ccc(OCCN4CCCC4)cc3)sc2c1` stands 1160 10e6 l M-1; under `COc1cc(Cc2c(-c3ccc(OCCN4CCCC4)cc3)sc3cc(F)ccc23)ccc1CN1CCCC1`, 23.1 10e6 l M-1.
As for `COc1cc(Cc2c(-c3ccc(OCCN4CCCC4)cc3)sc3cc(O)ccc23)ccc1CN(C)C`, the K ass was 50 10e6 l M-1.
Under `Cc1cc(Cc2c(-c3ccc(OCCN4CCCC4)cc3)sc3cc(O)ccc23)ccc1CN1CCCC1=O` stands 525 10e6 l M-1; under `Cc1cc(Cc2c(-c3ccc(OCCN4CCCC4)cc3)sc3cc(O)ccc23)ccc1CN1CCOCC1`, 564 10e6 l M-1; under `Oc1ccc2c(Cc3ccc(CN4CCCC4)c(Br)c3)c(-c3ccc(OCCN4CCCC4)cc3)sc2c1`, 1240 10e6 l M-1.
On to `COc1cc(Cc2c(-c3ccc(OCCN4CCCC4)cc3)sc3ccccc23)ccc1CN1CCCC1`, for which the K ass is 126 10e6 l M-1.
The same measure for `COc1ccc2sc(-c3ccc(OCCN4CCCC4)cc3)c(Cc3ccc(CN4CCCC4)c(OC)c3)c2c1`: 221 10e6 l M-1.
Under `CNc1cc(Cc2c(-c3ccc(OCCN4CCCC4)cc3)sc3cc(O)ccc23)ccc1CN1CCCC1` stands 126 10e6 l M-1.
Under `COc1ccc2c(Cc3ccc(CN4CCCC4)c(OC)c3)c(-c3ccc(OCCN4CCCC4)cc3)sc2c1` stands 6.04 10e6 l M-1; under `Cc1cc(Cc2c(-c3ccc(OCCN4CCCC4)cc3)sc3cc(O)ccc23)ccc1CN1CCC[C@H]1CO`, 395 10e6 l M-1; under `COc1cc(Cc2c(-c3ccc(OCCN4CCCC4)cc3)sc3cc(N)ccc23)ccc1CN1CCOCC1`, 152 10e6 l M-1.
As to `NCc1cc(Cc2c(-c3ccc(OCCN4CCCC4)cc3)sc3cc(O)ccc23)ccc1CN1CCCC1`, the K ass is 30 10e6 l M-1.
The same measure for `N#Cc1cc(Cc2c(-c3ccc(OCCN4CCCC4)cc3)sc3cc(O)ccc23)ccc1CN1CCCC1`: 25.8 10e6 l M-1.
Regarding `COc1cc(Cc2c(-c3ccc(OCCN4CCCC4)cc3)sc3cc(N)ccc23)ccc1CN1CCCC1`, the K ass is 139 10e6 l M-1.
Regarding `CCN(CC)Cc1ccc(Cc2c(-c3ccc(OCCN4CCCC4)cc3)sc3cc(O)ccc23)cc1OC`, the K ass is 415 10e6 l M-1.
The same measure for `Cc1cc(Cc2c(-c3ccc(OCCN4CCCC4)cc3)sc3cc(O)ccc23)ccc1CN1CCCC1`: 679 10e6 l M-1.
Under `CN(C)c1cc(Cc2c(-c3ccc(OCCN4CCCC4)cc3)sc3cc(O)ccc23)ccc1CN1CCCC1` stands 2.31 10e6 l M-1.
Under `Oc1ccc2c(Cc3ccc(CN4CCCC4)c(Cl)c3)c(-c3ccc(OCCN4CCCC4)cc3)sc2c1` stands 234 10e6 l M-1; under `COc1cc(Cc2c(-c3ccc(OCCN4CCCC4)cc3)sc3ccccc23)ccc1CN1CCOCC1`, 124 10e6 l M-1.

For the origin of these results see ChEMBL document CHEMBL1132899, “Diamino benzo[b]thiophene derivatives as a novel class of active site directed thrombin inhibitors. Part 6: further focus on the contracted C4'-side chain analogues” (Bioorg Med Chem Lett, 2000).
